Active and inactive are the calls of the source.
Tests used:
[1] = target: T1, NADPH oxidase 1 (Homo sapiens, UniProt Q9Y5S8); type: functional, cell-based;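 further: Cell-based assay with luminescence read-out, IC50 derived from inhibitor dose-response curves; intracellular ROS from endogenous NOX1 in intact HT29 colon cancer cells; potency of inhibitors that lower the ROS luminescence signal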
T1 sequence (Q9Y5S8 whole entry): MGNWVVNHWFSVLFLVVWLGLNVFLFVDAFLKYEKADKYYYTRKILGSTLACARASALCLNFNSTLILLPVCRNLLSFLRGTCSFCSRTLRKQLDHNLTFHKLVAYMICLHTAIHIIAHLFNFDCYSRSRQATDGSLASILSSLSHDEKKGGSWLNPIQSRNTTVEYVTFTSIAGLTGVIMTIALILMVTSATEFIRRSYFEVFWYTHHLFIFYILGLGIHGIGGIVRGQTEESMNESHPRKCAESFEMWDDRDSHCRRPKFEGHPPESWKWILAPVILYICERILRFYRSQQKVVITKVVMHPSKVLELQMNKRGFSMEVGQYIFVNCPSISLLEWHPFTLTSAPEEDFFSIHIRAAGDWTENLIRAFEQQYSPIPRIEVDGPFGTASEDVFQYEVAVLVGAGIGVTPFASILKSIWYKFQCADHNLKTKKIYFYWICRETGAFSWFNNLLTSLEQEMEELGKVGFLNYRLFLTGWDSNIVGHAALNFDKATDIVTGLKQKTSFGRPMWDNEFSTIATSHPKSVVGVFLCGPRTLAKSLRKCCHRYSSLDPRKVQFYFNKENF

[2] = cytotoxicity toward NIH3T3 fibroblasts, dose response, counter-screen, cell-based, ATP luminescence, mouse fibroblasts (AID 2010); type: functional;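 further: cells exposed to compound for about 90 hours before reading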
[3] = inhibitors of intracellular T. cruzi replication, confirmation, NIH3T3 host cells, beta-gal luminescence (AID 2044); type: functional, cell-based;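 further: intracellular parasites grown in NIH/3T3 mouse fibroblasts as host cells; luminescent beta-galactosidase reporter signal from transgenic T. cruzi replicating inside host cells; inhibitors lower the luminescence signal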
[4] = cells
[5] = target: T2, Alkaline phosphatase, tissue-nonspecific isozyme (Homo sapiens, UniProt P05186); assay: human TNAP enzyme inhibitors, SAR follow-up, biochemical, luminescent, dose response (AID 1056)
T2 sequence (P05186 whole entry): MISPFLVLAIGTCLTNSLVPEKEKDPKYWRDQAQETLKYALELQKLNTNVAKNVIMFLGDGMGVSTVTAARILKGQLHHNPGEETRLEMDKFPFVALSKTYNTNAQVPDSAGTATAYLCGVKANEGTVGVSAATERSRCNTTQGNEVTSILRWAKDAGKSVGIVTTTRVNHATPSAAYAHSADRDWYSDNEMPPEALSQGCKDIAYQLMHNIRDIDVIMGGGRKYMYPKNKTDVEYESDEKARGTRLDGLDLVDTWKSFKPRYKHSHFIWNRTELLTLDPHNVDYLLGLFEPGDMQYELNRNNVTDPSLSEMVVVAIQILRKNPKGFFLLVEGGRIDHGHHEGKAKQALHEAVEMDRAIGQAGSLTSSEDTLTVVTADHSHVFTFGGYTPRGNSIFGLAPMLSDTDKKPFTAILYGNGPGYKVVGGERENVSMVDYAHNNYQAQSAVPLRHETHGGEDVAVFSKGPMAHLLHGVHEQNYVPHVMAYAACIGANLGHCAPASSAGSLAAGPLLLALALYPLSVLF

[6] = THP-1 cell cytotoxicity, dose response, cytotoxicity control for Vif-APOBEC3G degradation inhibitor project, THP-1 cells (AID 1117359); type: functional; settings: Human immunodeficiency virus 1, THP-1
[7] = target: Glyceraldehyde-3-phosphate dehydrogenase (Homo sapiens, UniProt P04406)
Glyceraldehyde-3-phosphate dehydrogenase, sequence (P04406 whole entry): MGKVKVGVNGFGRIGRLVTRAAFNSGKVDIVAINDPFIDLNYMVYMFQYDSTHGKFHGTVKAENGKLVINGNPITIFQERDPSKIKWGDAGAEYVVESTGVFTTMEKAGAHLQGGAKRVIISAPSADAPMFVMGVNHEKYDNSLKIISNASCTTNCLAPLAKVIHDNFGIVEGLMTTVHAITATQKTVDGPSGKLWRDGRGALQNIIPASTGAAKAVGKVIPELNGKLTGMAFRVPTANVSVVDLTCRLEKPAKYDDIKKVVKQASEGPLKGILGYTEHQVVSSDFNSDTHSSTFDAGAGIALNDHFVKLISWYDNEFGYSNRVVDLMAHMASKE

[8] = cytotoxicity in HEK-293T cells, dose response, cytotoxicity control for BCR NF-kB inhibitor project, luminescence, B-cell screen hits (AID 489021); type: functional, cell-based;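 further: HEK-293T cells carrying an NF-kB luciferase reporter; cells exposed to compound for about 14 hours before viability readout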
[9] = target: DNA dC->dU-editing enzyme APOBEC-3G (Homo sapiens, UniProt Q9HC16); assay: Dose Response confirmation of small molecule APOBEC3G DNA Deaminase Inhibitors via a fluorescence-based single-stranded DNA deaminase assay. [Related pubchem assays (depositor defined):AID493012, AID493028]; type: functional
DNA dC->dU-editing enzyme APOBEC-3G, sequence (Q9HC16 whole entry): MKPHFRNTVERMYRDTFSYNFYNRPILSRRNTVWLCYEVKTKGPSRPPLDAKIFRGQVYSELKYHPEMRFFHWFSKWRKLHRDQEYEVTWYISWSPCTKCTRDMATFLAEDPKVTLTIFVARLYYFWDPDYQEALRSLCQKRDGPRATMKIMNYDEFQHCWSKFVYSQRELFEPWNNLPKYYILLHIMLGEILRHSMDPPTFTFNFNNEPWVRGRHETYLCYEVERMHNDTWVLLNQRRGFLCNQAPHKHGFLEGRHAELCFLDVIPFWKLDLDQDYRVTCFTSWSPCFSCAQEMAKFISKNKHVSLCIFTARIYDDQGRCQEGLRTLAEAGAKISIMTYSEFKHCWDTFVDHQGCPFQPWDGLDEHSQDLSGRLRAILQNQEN

[10] = cytotoxicity in HPDE-C7 cells, cell-based, fluorescence, HTS (AID 430); type: functional; settings: Homo sapiens
[11] = cytotoxicity in KRAS-transformed pancreatic duct cells, primary screen, cell-based, fluorescence, HTS (AID 431); type: functional; settings: Homo sapiens;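 further: cell line used: HPDE-C7K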
[12] = HeLa cell cytotoxicity, dose response, cytotoxicity control for MgcRacGAP inhibitor project (AID 624300); type: functional
[13] = target: T3, Microphthalmia-associated transcription factor (Homo sapiens, UniProt O75030); assay: TRPM1 promoter luciferase signal decrease, dose response, MITF inhibitor project, cell-based, SK-MEL-5, cherry-picked, set 3 (AID 493073); type: functional
T3 sequence (O75030 whole entry): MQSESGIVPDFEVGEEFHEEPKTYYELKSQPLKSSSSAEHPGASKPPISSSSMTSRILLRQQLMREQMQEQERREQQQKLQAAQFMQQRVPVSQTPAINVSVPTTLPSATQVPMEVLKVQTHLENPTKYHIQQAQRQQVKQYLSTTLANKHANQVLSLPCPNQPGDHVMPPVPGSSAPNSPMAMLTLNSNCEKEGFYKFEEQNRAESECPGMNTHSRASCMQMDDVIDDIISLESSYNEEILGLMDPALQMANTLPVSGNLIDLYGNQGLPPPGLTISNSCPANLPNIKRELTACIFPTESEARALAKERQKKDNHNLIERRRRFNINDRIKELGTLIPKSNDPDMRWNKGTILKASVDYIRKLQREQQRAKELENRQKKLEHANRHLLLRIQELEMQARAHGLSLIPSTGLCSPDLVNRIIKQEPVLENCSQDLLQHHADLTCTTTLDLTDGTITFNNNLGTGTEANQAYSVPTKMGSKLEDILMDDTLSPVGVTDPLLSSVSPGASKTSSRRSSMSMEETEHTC

[14] = inhibitors of PGC1a acetylation in cells, dose response, cell-based, cherry-picked samples (AID 720514); type: functional;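 further: potency may reflect raised or lowered acetylation signal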
[15] = target: T4, Rac GTPase-activating protein 1 (Homo sapiens, UniProt Q9H0H5); assay: MgcRacGAP GTPase-activating activity inhibitors, confirmation, biochemical, ADP Hunter fluorescence, primary and confirmatory (AID 624330); type: functional
T4 sequence (Q9H0H5 whole entry): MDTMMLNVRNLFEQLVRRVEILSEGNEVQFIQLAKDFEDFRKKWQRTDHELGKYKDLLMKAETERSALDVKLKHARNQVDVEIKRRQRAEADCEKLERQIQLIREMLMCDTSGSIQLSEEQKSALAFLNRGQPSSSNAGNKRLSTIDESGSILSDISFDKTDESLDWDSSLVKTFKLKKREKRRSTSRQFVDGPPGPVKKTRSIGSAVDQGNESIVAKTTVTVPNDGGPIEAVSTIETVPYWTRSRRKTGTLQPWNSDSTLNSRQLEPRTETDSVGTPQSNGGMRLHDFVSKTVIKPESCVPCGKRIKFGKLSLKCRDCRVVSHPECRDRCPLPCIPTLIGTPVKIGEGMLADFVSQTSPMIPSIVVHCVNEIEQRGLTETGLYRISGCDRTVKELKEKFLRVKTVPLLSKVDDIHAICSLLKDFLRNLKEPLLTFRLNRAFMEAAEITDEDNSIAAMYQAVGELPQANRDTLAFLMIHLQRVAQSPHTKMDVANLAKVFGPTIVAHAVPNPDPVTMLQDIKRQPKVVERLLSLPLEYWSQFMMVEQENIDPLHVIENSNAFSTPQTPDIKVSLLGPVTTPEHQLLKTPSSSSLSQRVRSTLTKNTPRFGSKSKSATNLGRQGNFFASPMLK

[16] = target: Nonstructural protein 1 (Influenza A virus, UniProt Q194T2); type: functional, Influenza A virus (A/California/07/2009(H1N1))
Nonstructural protein 1, sequence (Q194T2 whole entry): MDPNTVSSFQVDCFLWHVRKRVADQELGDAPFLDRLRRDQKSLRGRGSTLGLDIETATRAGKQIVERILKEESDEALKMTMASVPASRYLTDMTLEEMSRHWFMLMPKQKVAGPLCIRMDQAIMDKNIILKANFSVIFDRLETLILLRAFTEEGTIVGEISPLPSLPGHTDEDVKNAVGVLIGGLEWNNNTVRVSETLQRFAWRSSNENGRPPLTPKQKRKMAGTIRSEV

[17] = P. falciparum Dd2 growth inhibitors, dose response, SYBR Green, cherry-picked samples (AID 1159567); type: functional, cell-based
[18] = HepG2 cell cytotoxicity, dose response, cytotoxicity control, cherry-picked samples (AID 1159577); type: functional, cell-based
[19] = P. falciparum 3D7-ScDHODH growth inhibitors, dose response, SYBR Green, dry powder samples (AID 1159570); type: functional, cell-based;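 further: parasite growth measured after 72 hours of compound exposure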
[20] = P. falciparum Dd2 growth inhibitors, dose response, SYBR Green, dry powder samples (AID 1159566); type: functional, cell-based;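 further: potency for growth inhibition with lower SYBR green DNA signal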
[21] = P. falciparum ATP4 D1247Y mutant growth inhibitors, dose response, NITD609-resistant line, SYBR Green, dry powder (AID 1159571); type: functional, cell-based;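 further: parasites synchronized at ring stage by sorbitol before testing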
[22] = HepG2 cell cytotoxicity, dose response, cytotoxicity control, plate reader, dry powder samples (AID 1159569); type: functional, cell-based;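 further: inhibitor potency with signal falling toward the positive control level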

With `O=[N+]([O-])c1cccc(/C=N/Nc2c(Cl)cncc2Cl)c1` the IC50 [1] was > 17 µM (not active).

In the case of `O=C(O)c1nc(Cl)c(Cl)c(N/N=C/c2ccc(N3CCOCC3)c([N+](=O)[O-])c2)c1Cl`, the IC50 [1] is reported as > 17 µM (not active).

In the case of `COc1ccc(-c2nc(CN3CCN(Cc4cccc(Cl)c4)CC3)c(C)o2)cc1`, the EC50 [2] is reported as > 60 µM (not active), the EC50 [3] is reported as < 0.1 µM (active) and the EC50 [4] is reported as 0.377 µM (active).

In the case of `COc1ccc(OC)c(S(=O)(=O)Nc2ccc(O)c3ccccc23)c1`, the IC50 [5] is reported as > 100 µM (inactive), the CC50 [6] is reported as 12.8 µM (active) and the IC50 [7] is reported as > 100 µM (not active).

For `CCOc1ccc(-c2cc(CCCC(=O)NCc3ccc(C)cc3)no2)cc1`, the IC50 [8] was > 80 µM (inactive).

For `O=C(Oc1cccc2ccccc12)c1sc2ccccc2c1Cl`, the IC50 [1] was > 17 µM (not active).

For `O=C(Oc1ccccc1F)c1sc2ccccc2c1Cl`, the IC50 [1] was > 17 µM (not active).

With `COc1ccc(O)c(C(=O)C2c3ccccc3C(=O)N2c2ccc(C)cc2)c1` (configuration not stated) the IC50 [9] was 37.4 µM (active) and the CC50 [6] was > 40 µM (active).

For `CCc1c(C)nc2cc(-c3cc(OC)cc(OC)c3)nn2c1N1CCCC1`, the EC50 [10] was 10.5 µM (active) and the EC50 [11] was 13 µM (active).

For `COc1ccc(CN2CCCC(CNC(=O)c3ccc(F)cc3)C2)c(C)c1C` (configuration not stated), the EC50 [2] was > 30 µM (not active), the EC50 [3] was < 0.1 µM (active) and the EC50 [4] was 0.09 µM (active).

With `O=C1/C(=C/c2ccccc2[N+](=O)[O-])COc2ccccc21` the CC50 [12] was 100 µM (active), the AC50 [13] was 9.8 µM (active) and the AC50 [14] was 4.77 µM (active). The IC50 [15] was 101 µM (active).

With `Cc1cc(N(C)C)ccc1N=Nc1ccc(N)cc1` the IC50 [8] was > 80 µM (inactive), the IC50 [16] was 21.4 µM (active) and the IC50 [15] was 29.3 µM (active).

In the case of `Cc1ccc([C@H]2C(C(=O)O)=CC[C@@H](c3cccc(Cl)c3)N2S(=O)(=O)c2ccc(C)cc2)cc1`, the CC50 [6] is reported as > 40 µM (active).

With `N#Cc1ccc(-c2ccc([C@@H]3[C@@H]4CN(S(=O)(=O)c5ccc(F)cc5)C[C@H]3N4)cc2)cc1` the AC50 [17] was 4.69 µM (active) and the AC50 [14] was 1.57 µM (active).

With `N#C[C@H]1[C@H](c2ccc(-c3ccccc3)cc2)[C@H](CO)N1C(=O)Cc1ccncc1` the AC50 [17] was 3.05 µM (active) and the AC50 [18] was > 36 µM (inactive).

With `COc1ccccc1C#Cc1ccc([C@H]2[C@@H](C#N)N(C(=O)C3CCC3)[C@H]2CO)cc1` the AC50 [17] was 1.36 µM (active), the AC50 [19] was 1.16 µM (active) and the AC50 [20] was 0.51 µM (active). For the same compound, the AC50 [18] was > 42 µM (inactive), the AC50 [21] was 0.795 µM (active) and the AC50 [22] was 37.3 µM (active).

In the case of `CO[C@@H]1CN(C)C(=O)c2cc(NC(=O)c3ccc(-c4ccccc4)cc3)ccc2OC[C@@H](C)NC[C@@H]1C`, the AC50 [17] is reported as 7.25 µM (active) and the AC50 [18] is reported as 14.2 µM (active).

In the case of `COc1ccc2c3c(n(C)c2c1)[C@@H](CO)NCC31CCN(Cc2ccccc2Cl)CC1`, the AC50 [17] is reported as 2.44 µM (active) and the AC50 [18] is reported as 18.3 µM (active).

For `COc1ccc(C(=O)CC(=O)O)c2c1C=CC(C)(C)O2` [URSINOIC ACID], the EC50 [10] was > 20 µM (not active) and the EC50 [11] was > 20 µM (not active).

— ChEMBL document CHEMBL1201862, “PubChem BioAssay data set” (2004)
